Data set [1] concerns SH-SY5Y. The data set is described as follows: Protection against amyloid beta oligomer-induced cytotoxicity in human SH-SY5Y cells expressing miRNA-15b assessed as cell viability at 10 uM after 72 hrs by MTT assay relative to control. Type of data set: functional. The settings on record: read-out: Activity.
Data set [2] in a line: Binding affinity to 5'Dabcyl/3'-fluorescein-labelled pre-miRNA-15b (unknown origin) assessed as inhibition of recombinant human dicer-mediated pre-miRNA processing at 10 uM preincubated for 30 mins followed by dicer addition and measured after 5 hrs by FRET assay.
The target in data set [3] is T1, Acetylcholinesterase (Homo sapiens, UniProt P22303). In words: Inhibition of recombinant human AChE at 10 uM using ATC as substrate by DTNB-reagent based Ellman's method relative to control.
The nature of data set [4]: Binding affinity to 5'Dabcyl/3'-fluorescein-labelled pre-miRNA-15b (unknown origin) assessed as inhibition of recombinant human dicer-mediated pre-miRNA processing preincubated for 30 mins followed by dicer addition and measured after 5 hrs by FRET assay.
Data set [5] is described as follows: Binding affinity to 5'Dabcyl/3'-fluorescein-labelled pre-miRNA-15b (unknown origin) assessed as inhibition of dicer-mediated pre-miRNA processing […] by FRET assay.
The nature of data set [6]: Binding affinity to 3'-fluorescein-labelled pre-miRNA-15b (unknown origin) measured after 30 mins by FRET assay.
The nature of data set [7]: Binding affinity to 5'Dabcyl/3'-fluorescein-labelled pre-miRNA146a (unknown origin) assessed as inhibition of recombinant human dicer-mediated pre-miRNA processing at 10 uM preincubated for 30 mins followed by dicer addition and measured after 5 hrs by FRET assay.
Data set [8] can be described thus: Binding affinity to 5'Dabcyl/3'-fluorescein-labelled pre-miRNA124 (unknown origin) assessed as inhibition of recombinant human dicer-mediated pre-miRNA processing at 10 uM preincubated for 30 mins followed by dicer addition and measured after 5 hrs by FRET assay.
Data set [9] can be described thus: Binding affinity to 5'Dabcyl/3'-fluorescein-labelled pre-miRNA212 (unknown origin) assessed as inhibition of recombinant human dicer-mediated pre-miRNA processing at 10 uM preincubated for 30 mins followed by dicer addition and measured after 5 hrs by FRET assay.
For data set [10], the species on record is Homo sapiens. The data set is described as follows: Inhibition of miRNA-15b biogenesis in human SH-SY5Y cells at 10 uM measured after 96 hrs by Trizol reagent based RT-qPCR analysis relative to control. Type of data set: cell-based. Background: In qPCR the cycle at which signal appears reflects the starting amount.
The target of data set [11] is T1, Acetylcholinesterase. In words: Inhibition of recombinant human AChE using ATC as substrate by DTNB-reagent based Ellman's method. A general note: DTNB colorimetry detects thiols as they appear.
The target of data set [12] is T1, Acetylcholinesterase. In words: Mixed type inhibition of recombinant human AChE at […] using varying levels of ATC as substrate by Lineweaver-burk plot analysis. The note with it: dose microM 0.5-10.
Data set [13] deals with Cholinesterase (Homo sapiens) (UniProt P06276). The data set is described as follows: Inhibition of human blood BChE at 1 to 25 uM using butyrylthiocholine iodide as substrate measured after 20 mins by fluorescence assay. The note with it: dose microM 1-25, time 20.0 min. Type of data set: tissue-based.
Data set [14] in a line: Permeability of the compound in PBS/EtOH solution measured after 16 hrs by PAMPA. The class given is ADME. The note with it: read-out: permeability.
A short description of data set [15]: Partition coefficient, log P of the compound in pH 7.4 1-octanol/PBS buffer at 38 mg measured after 1 hr by LC-MS/MS analysis. The class given is physicochemical.
A short description of data set [16]: Solubility of the compound in pH 7.4 PBS buffer at 100 uM measured after 24 hrs by LC-MS/MS analysis. Type of data set: physicochemical.
Data set [17] is described as follows: Half life in pH 1.6 simulated gastric fluid at 100 uM by LC-MS/MS analysis. The class given is ADME.
Data set [18] can be described thus: Half life in pH 6.5 simulated intestinal fluid at 100 uM by LC-MS/MS analysis. The class given is ADME.
Data set [19] can be described thus: Stability in human serum assessed as parent compound remaining at 100 uM measured after 2 hrs by LC-MS/MS analysis. Type of data set: ADME, cell-free. The note with it: read-out: Stabilty.
Data set [20] in a line: Apparent permeability across apical to basolateral side in human Caco2 cells after 120 mins by LC-MS/MS analysis. The class given is ADME, cell-based. The settings on record: Caco-2.
A short description of data set [21]: Apparent permeability across basolateral to apical side in human Caco2 cells after 120 mins by LC-MS/MS analysis. Type of data set: ADME, cell-based. The settings on record: Caco-2.
A short description of data set [22]: Half life in Sprague-Dawley rat liver microsomes at 100 uM measured at 20 mins interval by LC-MS/MS analysis. The class given is ADME, Microsome.
Data set [23] has as its system HEL 299. In words: Cytotoxicity against HEL 299 cells measured after 2 days by MTT assay. Type of data set: cell-based. The note with it: Homo sapiens, HEL 299, 48 h. A general note: Tetrazolium dyes change colour on reduction, which living cells bring about.
Data set [24] in a line: Binding affinity to miRNA-15b variant (unknown origin) transfected in human SH-SY5Y cells at 0.5 to 10 uM preincubated with cells for 4 hrs followed by transfection and measured after 4 days by renilla luciferase reporter gene assay. The class given is cell-based. The note with it: dose microM 0.5-10, time 4.0 hrs.

The values that follow come from ChEMBL document CHEMBL4725361, “MicroRNA-Based Multitarget Approach for Alzheimer's Disease: Discovery of the First-In-Class Dual Inhibitor of Acetylcholinesterase and MicroRNA-15b Biogenesis” (J Med Chem, 2020).

Values after ≈ are worked out from the molar mass of the structure shown. Active and inactive are the calls of the source. No cut-off for these calls is given here.

T1 sequence (P22303 whole entry): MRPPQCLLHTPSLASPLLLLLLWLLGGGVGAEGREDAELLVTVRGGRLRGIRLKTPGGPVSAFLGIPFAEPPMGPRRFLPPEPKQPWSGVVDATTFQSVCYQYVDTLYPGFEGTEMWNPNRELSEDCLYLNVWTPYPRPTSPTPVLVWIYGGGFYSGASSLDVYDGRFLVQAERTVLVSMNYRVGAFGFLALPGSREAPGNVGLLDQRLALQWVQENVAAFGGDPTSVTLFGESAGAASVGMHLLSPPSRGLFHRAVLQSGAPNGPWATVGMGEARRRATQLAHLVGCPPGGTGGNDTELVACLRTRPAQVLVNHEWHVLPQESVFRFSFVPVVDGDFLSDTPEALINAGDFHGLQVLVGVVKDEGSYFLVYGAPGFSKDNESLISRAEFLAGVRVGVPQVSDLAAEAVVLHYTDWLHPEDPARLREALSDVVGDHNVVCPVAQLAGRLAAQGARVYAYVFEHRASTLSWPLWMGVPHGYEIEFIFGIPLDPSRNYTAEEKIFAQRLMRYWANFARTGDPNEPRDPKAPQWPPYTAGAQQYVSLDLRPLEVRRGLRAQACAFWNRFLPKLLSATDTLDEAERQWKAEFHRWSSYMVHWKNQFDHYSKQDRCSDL
Sequence of Cholinesterase (Homo sapiens) (P06276 whole entry): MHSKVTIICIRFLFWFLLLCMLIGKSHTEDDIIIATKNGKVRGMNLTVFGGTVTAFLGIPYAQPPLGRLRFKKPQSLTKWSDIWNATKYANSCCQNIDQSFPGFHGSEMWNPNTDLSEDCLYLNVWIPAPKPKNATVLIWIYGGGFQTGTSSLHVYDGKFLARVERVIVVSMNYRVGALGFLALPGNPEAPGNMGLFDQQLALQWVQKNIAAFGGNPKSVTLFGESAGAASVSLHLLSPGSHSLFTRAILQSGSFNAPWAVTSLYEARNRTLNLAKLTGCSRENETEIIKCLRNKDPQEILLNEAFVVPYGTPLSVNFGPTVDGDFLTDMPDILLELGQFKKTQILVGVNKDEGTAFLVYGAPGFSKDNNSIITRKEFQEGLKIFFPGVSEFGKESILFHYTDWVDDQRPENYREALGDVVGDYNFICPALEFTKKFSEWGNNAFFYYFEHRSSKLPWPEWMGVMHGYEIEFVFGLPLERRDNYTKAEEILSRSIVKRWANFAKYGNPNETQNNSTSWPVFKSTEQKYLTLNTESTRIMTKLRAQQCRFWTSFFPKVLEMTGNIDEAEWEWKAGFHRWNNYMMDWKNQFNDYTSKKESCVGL

As to `COc1cc2c(cc1OC)C(=O)C(CC1CCN(Cc3ccccc3)CC1)C2` (stereo unspecified) [DONEPEZIL], the viability at 10 µM in [1] was found to be 45%.

Regarding `COCCn1cnc2cc(NC(=O)c3ccccc3)cc(C(=O)NCc3cc(F)cc(F)c3)c21`, the inhibition entry in data set [2], in [12] and in data set [13] was “Active” in each case. Further, the values for the inhibition in data set [3] and in data set [10] were above 90% and 55%, respectively. For the same molecule, the IC50 was 0.37 µM in [4], 0.53 µM in [5], 0.12 µM in [11] and above 50 µM in data set [23]. In addition, the Kd in data set [6] stood at 0.81 µM. Besides, the inhibition entry in data set [7], in [8] and in data set [9] was “inactive” in each case. Moreover, the viability at 10 µM in data set [1] amounted to 90%. Also, in [14], the Papp at 16 h is 30.8 ×10⁻⁶ cm/s. Moreover, the logD at 1 h in data set [15] was found to be 2.34. In data set [16], this molecule showed a solubility at 24 h, 100 µM of 34 µM (≈ 15.8 µg/mL). Moreover, the results for the half-life at 100 µM in data set [17], in data set [18] and in [22] were 6.87 h, above 8.33 h and above 5 h, respectively. For the same molecule, the remaining at 2 h, 100 µM in data set [19] amounted to 99.1%. In [20], the Papp A→B at 2 h was 16.7 ×10⁻⁶ cm/s. The Papp B→A at 2 h in data set [21] amounted to 36.5 ×10⁻⁶ cm/s. Besides, the outcome in [24] was inactive.

Consider `CCN(C)C(=O)Oc1cccc([C@H](C)N(C)C)c1`, for which the inhibition entry in data set [13] is “Active”.

For orientation: inhibition means the share of the control response that was lost under treatment. One may read the IC50 as the concentration at which inhibition is half-maximal. One may read the Kd as the equilibrium constant for the complex coming apart. Low values mean a tighter complex, high ones a looser complex. As a reminder, the logD is lipophilicity at a set pH, counting ionised and neutral species. Low readings indicate lower lipophilicity, high ones higher lipophilicity. Usually solubility stands for the concentration that dissolves in the medium under given conditions. The low end stands for little dissolved substance, the high end for much dissolved substance. The term half-life denotes the time in which the quantity being followed falls by half. A higher half-life goes with slow loss. What is called Papp A→B is how fast a substance crosses the layer from the apical side. A word on the Papp B→A: it is how fast a substance crosses the layer from the basolateral side.
